From paper PMC9127750, “Structure-based design of CDC42 effector interaction inhibitors for the treatment of cancer” (Cell reports, 2022)

System: WM3248 melanoma cells, 486 antibodies
Assay: Reverse phase protein arrays (RPPA)
Assay type: cell-based, Human
Details: 5 uM, Average
Description: Pellets were snap frozen in liquid nitrogen and shipped to MD Anderson Cancer Center core RPPA facility for RPPA analysis (Table S5). Three biological replicates for each sample were generated.
Nomenclatures on the RPPA heatmaps: name_of_antibody.species_of_antibody.status_of_antibody. V - antibody validated; C - validation of antibody in progress; Q - antibody nonspecific; E – under evaluation; antibodies raised in M - mouse, G - goat, R - rabbit, or T - rat.

CN(C)c1cccc(Nc2cc(-c3ccccc3)nc(C3CCNCC3)n2)c1 [ARN22089, N1,N1-dimethyl-N3-(6-phenyl-2-(piperidin-4-yl)pyrimidin-4-yl)benzene-1,3-diamine]
RPPA EMA.M.C: 1.019 | RPPA ENY2.M.C: 0.945 | RPPA ER.a.R.V: 1.031 | RPPA ER.a_pS118.R.V: 1.194 | RPPA ERCC1.R.C: 0.974 | RPPA ERCC5.R.C: 0.991 | RPPA ERRalpha.R.V: 1.000 | RPPA EVI1.R.V: 0.976 | RPPA Elk1_pS383.R.C: 1.029 | RPPA Enolase.2.R.V: 1.011 | RPPA EphA2.R.V: 0.963 | RPPA EphA2_pS897.R.C: 0.963 | RPPA Erk5.R.V: 1.061 | RPPA Ets.1.R.V: 0.910 | RPPA FABP5.R.C: 0.807 | RPPA FAK.R.C: 1.005 | RPPA FAK_pY397.R.V: 1.015 | RPPA FANCD2.R.V: 1.011 | RPPA FASN.R.V: 0.986 | RPPA FGF.basic.R.C: 0.990 | RPPA FN14.R.C: 1.084 | RPPA FOXM1.R.V: 1.005 | RPPA FTO.R.V: 0.940 | RPPA Fibronectin.R.V: 0.998 | RPPA FoxO3a_pS318_S321.R.C: 0.976 | RPPA G6PD.R.V: 0.982 | RPPA GATA3.M.V: 0.852 | RPPA GATA6.R.V: 0.999 | RPPA GCLC.R.C: 1.009 | RPPA GCLM.R.V: 0.973 | RPPA GCN5L2.R.V: 1.028 | RPPA GGPS1.M.V: 0.917 | RPPA GRB2.R.V: 1.049 | RPPA GRB7.R.V: 1.025 | RPPA GSK.3a.b.M.V: 0.977 | RPPA GSK.3a.b_pS21_S9.R.V: 0.983 | RPPA Gab2.R.V: 1.019 | RPPA Gli1.R.C: 1.002 | RPPA Gli3.R.C: 0.909 | RPPA Glucocorticoid.Receptor.R.V: 1.019 | RPPA Glutamate.D1.2.R.V: 0.907 | RPPA Glutaminase.R.C: 0.909 | RPPA Granzyme.B.R.V: 1.098 | RPPA Grp75.R.C: 0.983 | RPPA Gys_pS641.R.V: 1.021 | RPPA H2AX_pS139.R.C: 1.019 | RPPA H2AX_pS140.M.C: 0.923 | RPPA HER2.M.V: 0.962 | RPPA HER2_pY1248.R.V: 1.025 | RPPA HER3_pY1289.R.C: 0.983 | RPPA HES1.R.V: 1.187 | RPPA X4E.BP1.R.V: 1.200 | RPPA X4E.BP1_pS65.R.V: 1.011 | RPPA X4E.BP1_pT37_T46.R.V: 1.016 | RPPA X14.3.3.zeta.R.V: 0.987 | RPPA X14.3.3βR.V: 1.006 | RPPA X14.3.3εM.C: 0.962 | RPPA X53BP1.R.V: 0.978 | RPPA b.Actin.R.C: 0.929 | RPPA b.Catenin.R.V: 0.915 | RPPA b.Catenin_pT41_S45.R.V: 1.024 | RPPA c.Abl.R.V: 1.084 | RPPA c.Abl_pY412.R.C: 1.056 | RPPA c.IAP2.R.C: 1.003 | RPPA eEF2.R.C: 0.913 | RPPA eEF2K.R.V: 0.916 | RPPA eIF4E.R.V: 1.118 | RPPA eIF4E_pS209.R.V: 1.025 | RPPA eIF4G.R.C: 1.047 | RPPA level HLA.DQA1.R.V: 0.948 | RPPA level HLA.DR.DP.DQ.DX.R.C: 0.928 | RPPA level HMHA1.R.V: 1.133 | RPPA level HNRNPK.R.V: 0.988 | RPPA level HSP27.M.C: 1.008 | RPPA level HSP27_pS82.R.V: 1.113 | RPPA level HSP60.R.V: 1.017 | RPPA level HSP70.R.C: 1.003 | RPPA level Hexokinase.I.R.C: 0.909 | RPPA level Hexokinase.II.R.V: 0.992 | RPPA level Hif.1αR.C: 1.051 | RPPA level Histone.H3.R.V: 0.963
